Measured values: patent US5662604A, “Monitoring method of renal lesions without clinical signs” (Asahi Kasei Kogyo Kabushiki Kaisha, priority 1995, dated 1997)
Where “and” joins values, the source holds several entries; their conditions need not be identical. Identical values can stand only once. Counter-ions that a name gives are not always drawn.

What was measured:
[1] = system: membrane component of rat renal cortex; test: Biological activity (cAMP generation, radioimmunoassay) by parallel test against bovine-PTH (1-84) standard; format: biochemical
Excerpt: Biological activity of teriparatide acetate unit can be determined by a parallel test wherein reacting a membrane component of rat renal cortex with teriparatide acetate and assaying generated cAMP by radioimmunoassay. The specific activity of teriparatide acetate is 3,300 units/mg by a parallel test using the standard substance of bovine-PTH (1-84).

urinary excretion of NAG = details: intravenous; IHP and PHP patients; Calcif. Tissue Int., 45(6):375 (1989); cited from earlier work
urinary NAG [2] = test: Urinary NAG response to intravenous h-PTH(1-34) in patients with diabetes mellitus having AER below 15 μg/min (Example 2); format: in vivo
Experimental: The predetermined dose of h-PTH(1-34), for example, is administered intravenously in the patients to carry out the monitoring method of the present invention. The patients are diabetes mellitus patients with an AER value below 15 μg/min., showing latent abnormal renal function without detecting manifestation of abnormal renal function. The h-PTH (1-34) is, for example, administered to these patients. Urinary excreted NAG of the patients can be assayed by hydrolysing a substrate NAG, i.e. sodium-cresol-sulfophthaleinyl-N-acetyl-β-D-glucosaminide (MCP-NAG), by NAG, coloring the thus generated m-cresol purple under alkaline condition by adding sodium carbonate and measuring colorimetrically 580 nm. Urinary NAG value is expressed, for example, as U/l (NAG active unit in one liter of urine). Urinary excreted NAG of the patients before administration of PTH and that after administration of PTH are measured, and an increased ratio of urinary excreted NAG value in the post-administration of PTH against the urinary excreted NAG value in the pre-administration of PTH is calculated.
Urine of the pre-administration is collected by excretion after accumulating the urine at a constant time interval, preferably 60 min.±10 min., previously after excreting urine in the pre-administration of PTH. Collecting urine is preferably performed immediately before administration of PTH. Urine of the post-administrationis collected after accumulating the urine under the same condition in the pre-administration, i.e. after a constant time interval of 60 min.±10 min., because of performing excretion (collection) of urine immediately before administration of PTH. For effective accumulation of urine, a suitable amount of drinking water, for example 100-300 ml, may be given to the patients. Urinary NAG value can be measured using a specimen of 0.05-1 ml. Since a suitable volume of water is given to the patients, a correction of the NAG value is needed. Accordingly, a parameter of urine volume and concentration, for example another component such as urinary creatinine concentration (expressed as mg/dl) is measured, and NAG value per creatinine value is obtained. A corrected value of NAG for creatinine (Unit: U/g Cr) is calculated by;
Urinary NAG (U/l ).div.urinary creatinine (mg/dl)×100.
Method: Eighteen (18) patients with diabetes mellitus having AER within normal range (below 15 μg/min.) were used.
Sixty minutes prior to intravenous administration of 100 units of h-PTH(1-34), complete excretion of urine was performed. 200 ml of drinking water were given to the individual volunteers and urine was collected immediately before administration of h-PTH(1-34). Then 100 units of h-PTH(1-34) were administered intravenously and 200 ml of drinking water were given for intake, and after 60 minutes urine was collected. Each of urinary NAG and creatinine in 0.5 ml of urine was measured to calculate the increased ratio of urinary excreted NAG. The NAG value was corrected by creatinine value.
Tables 2 and 3 show the various parameters in pre- and post-administration of PTH for the patients of diabetes mellitus showing the value with the normal range of AER (below 15 μg/min.).

urinary NAG [3] = test: Urinary NAG response to intravenous h-PTH(1-34) in healthy male volunteers (Referential Example); format: in vivo
Experimental: Method: Fourteen (14) healthy male volunteers were used.
Prior to 60 minutes for intravenous administration of h-PTH(1-34) 100 units, complete excretion of urine was performed. 200 ml of drinking water was given to the individual volunteers and urine was collected immediately before administration of […]. Then, h-PTH(1-34) 100 units were administered intravenously and 200 ml of drinking water was given to the volunteers, and after 60 minutes urine was again collected. Each of urinary NAG and creatinine in 0.5 ml of urine was measured, and an increased ratio of urinary excreted NAG was calculated. NAG value was corrected by creatinine value.
For an assay of NAG, NAG Test Shionogi (Shionogi Pharm. Co., assay method: mcp colorimetry) was used, and for that of creatinine, creatinine-HR (Wako Pure, Chem. Co., assay method: alkali picric acid method) was used. Table 1 illustrates the various parameters, i.e. NAG, AER and serum Cr, in pre- or post-administration of PTH for healthy male volunteers.
NAG value corrected by creatinine (unit: U/g Cr) is calculated by the equation;
Urinary NAG (Unit:U/l).div.urinary creatinine (unit:mg/dl)×100.
The normal range of urinary NAG value after administration of PTH in healthy volunteers is defined according to the results obtained hereinabove as follows. The normal range is calculated by mean ±2 S.D.

[4] = mean of 18 diabetic patients, 100 units i.v., 60 min
[5] = of 18 diabetic patients, 100 units i.v.
[6] = mean of 14 healthy male volunteers, 100 units i.v., 60 min

In the case of `CC[C@H](C)[C@H](NC(=O)[C@H](CCC(=O)O)NC(=O)[C@H](CO)NC(=O)[C@@H](NC(=O)[C@@H](N)CO)C(C)C)C(=O)N[C@@H](CCC(N)=O)C(=O)N[C@@H](CC(C)C)C(=O)N[C@@H](CCSC)C(=O)N[C@@H](Cc1cnc[nH]1)C(=O)N[C@@H](CC(N)=O)C(=O)N[C@@H](CC(C)C)C(=O)NCC(=O)N[C@@H](CCCCN)C(=O)N[C@@H](Cc1cnc[nH]1)C(=O)N[C@@H](CC(C)C)C(=O)N[C@@H](CC(N)=O)C(=O)N[C@@H](CO)C(=O)N[C@@H](CCSC)C(=O)N[C@@H](CCC(=O)O)C(=O)N[C@@H](CCCN=C(N)N)C(=O)N[C@H](C(=O)N[C@@H](CCC(=O)O)C(=O)N[C@@H](Cc1c[nH]c2ccccc12)C(=O)N[C@@H](CC(C)C)C(=O)N[C@@H](CCCN=C(N)N)C(=O)N[C@@H](CCCCN)C(=O)N[C@@H](CCCCN)C(=O)N[C@@H](CC(C)C)C(=O)N[C@@H](CCC(N)=O)C(=O)N[C@@H](CC(=O)O)C(=O)N[C@H](C(=O)N[C@@H](Cc1cnc[nH]1)C(=O)N[C@@H](CC(N)=O)C(=O)N[C@@H](Cc1ccccc1)C(=O)O)C(C)C)C(C)C` [Teriparatide hydrochloride], the “Specific activity of the bulk used for the injection” value ([1]; Example 1, Teriparatide hydrochloride) is reported as 3,333 teriparatide acetate units/mg.
In the case of “h-PTH(1-34): h-PTH(1-34) having molecular weight about 4,400 with 34 imino acids sequence”, the “Urinary excretion of NAG (in words)” value (urinary excretion of NAG) is listed as “increased urinary excretion of NAG in only IHP”, the “Urinary NAG post-” value (urinary NAG [2]; individual diabetic patients, AER below 15 μg/min, 100 units h-PTH(1-34) i.v., urine 60 min after) is listed as 7.3 U/gCr and 7.8 U/gCr and 15.6 U/gCr and 7.5 U/gCr and 11.0 U/gCr and 12.2 U/gCr and 6.8 U/gCr and 17.5 U/gCr and 10.1 U/gCr and 15.3 U/gCr and 4.5 U/gCr and 23.9 U/gCr and 13.4 U/gCr and 15.9 U/gCr and 9.7 U/gCr and 6.7 U/gCr and 16.7 U/gCr and the “Urinary NAG changes” value (urinary NAG [2]; individual diabetic patients, post minus pre, 100 units h-PTH(1-34) i.v., 60 min) is listed as 3.4 U/gcr and 3.9 U/gcr and 7.9 U/gcr and 3.7 U/gcr and 7.1 U/gcr and 4.9 U/gcr and 7.5 U/gcr and 5.8 U/gcr and 11.7 U/gcr and 2.2 U/gcr and 12.7 U/gcr and 8.1 U/gcr and 9.3 U/gcr and 5.1 U/gcr. The “Urinary NAG changes in ratio” value (urinary NAG [2]; individual diabetic patients, post/pre, 100 units h-PTH(1-34) i.v., 60 min) was 1.9 and 2.0 and 2.8 and 1.7 and 2.2 and 1.8 and 2.4 and 4.3 and 1.6 and 2.1 and 2.5 and 2.3 and 3.4, the “Urinary NAG changes in ratio, mean” value (urinary NAG [2]; [4]) was 2.3 and the “Urinary NAG changes, mean” value (urinary NAG [2]; [4]) was 6.5 U/gcr. For the same compound, the “Urinary NAG post-, mean” value (urinary NAG [2]; [4]) was 11.8 U/gCr, the “Number of patients with normal increased ratio of urinary excreted NAG (2.4-4.7)” value (urinary NAG [2]; [5]) was 6 subjects and the “Number of patients with significantly decreased increased ratio of urinary NAG (2.3), diagnosed as renal lesion without clinical symptoms of nephropathy” value (urinary NAG [2]; [5]) was 12 cases. The “Urinary excretion of NAG (in words)” value (urinary NAG [3]; administration of human-PTH (1-34) in healthy volunteers) was “increased urinary excretion of NAG”, the “Normal range of increased ratio of urinary NAG in post-administration to pre-administration” value (urinary NAG [3]; healthy volunteers, mean ±2 S.D.) was 2.4-4.7 and the “Urinary NAG post-” value (urinary NAG [3]; individual healthy male volunteers, 100 units h-PTH(1-34) i.v., urine 60 min after) was 5.9 U/gCr and 8.6 U/gCr and 10.7 U/gCr and 5.7 U/gCr and 7.3 U/gCr and 11.0 U/gCr and 14.7 U/gCr and 17.0 U/gCr and 10.0 U/gCr and 19.3 U/gCr and 6.4 U/gCr and 8.3 U/gCr and 9.8 U/gCr. The “Urinary NAG changes” value (urinary NAG [3]; individual healthy male volunteers, post minus pre, 100 units h-PTH(1-34) i.v., 60 min) was 4.3 U/gcr and 6.4 U/gcr and 7.4 U/gcr and 4.4 U/gcr and 4.9 U/gcr and 8.1 U/gcr and 9.7 U/gcr and 11.5 U/gcr and 7.3 U/gcr and 15.0 U/gcr and 5.8 U/gcr and 6.3 U/gcr and 6.2 U/gcr, the “Urinary NAG changes in ratio” value (urinary NAG [3]; individual healthy male volunteers, post/pre, 100 units h-PTH(1-34) i.v., 60 min) was 3.8 and 3.9 and 3.3 and 4.4 and 3.1 and 3.7 and 2.9 and 3.6 and 4.1 and 3.4 and 2.8 and 2.6 and the “Urinary NAG changes in ratio (increased ratio post-/pre-administration), mean” value (urinary NAG [3]; [6]) was 3.5 and 3.5±0.6. The “Urinary NAG changes, mean” value (urinary NAG [3]; [6]) was 7.3 U/gcr and the “Urinary NAG post-, mean” value (urinary NAG [3]; [6]) was 10.3 U/gCr and 10.3±4.1 U/gCr.
In the case of teriparatide acetate, the Specific activity ([1]; parallel test using standard substance of bovine-PTH (1-84)) is reported as 3,300 units/mg.
